Reference: US20260055108A1, “TRIAZINE COMPOUNDS AND USES THEREOF” (HUTCHMED LIMITED, priority 2022, published 2026)
pIC50: −log10 of the molar value.

Key:
[1] = target: Recombinant human Menin protein (2-610) / MLL polypeptide binding (Homo sapiens (Human), UniProt O00255); test: Menin and MLL protein binding at a molecular level (fluorescence polarization method); details: inhibition of Menin / MLL polypeptide binding
Method in brief: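 Binding of recombinant human Menin (2-610) to 6-FAM-labelled MLL peptide measured by fluorescence polarization (ex 480/em 535 nm) in Tris/NaCl/TCEP buffer, pH 7.5, 2% DMSO. Compound preincubated with Menin 30 min at room temperature, then peptide added for 30 min in the dark. Tested at 1.000 down to 0.0005 μM final.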

[2] = test system: MV-4-11 cells (human acute myelogenous leukemia cell line carrying MLL-AF4 mutation); test: Cell proliferation assay, MV-4-11 (CellTiter-Glo); format: cell-based; details: Homo sapiens, MV4-11, 72 h, MV-4-11 cells, 3 days treatment, CellTiter-Glo; read-out: GI50
Method in brief: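 MV-4-11 cells (3000/well, IMDM with 10% HIFBS and 50 μM β-mercaptoethanol) exposed to compound at 1.100–0.001 μM final, 0.1% DMSO, for 3 days at 37°C. Viability read by CellTiter-Glo luminescence on day 0 and day 3, normalised to day-0 and untreated wells.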

Chain of Recombinant human Menin protein (2-610) / MLL polypeptide binding (O00255 2-610): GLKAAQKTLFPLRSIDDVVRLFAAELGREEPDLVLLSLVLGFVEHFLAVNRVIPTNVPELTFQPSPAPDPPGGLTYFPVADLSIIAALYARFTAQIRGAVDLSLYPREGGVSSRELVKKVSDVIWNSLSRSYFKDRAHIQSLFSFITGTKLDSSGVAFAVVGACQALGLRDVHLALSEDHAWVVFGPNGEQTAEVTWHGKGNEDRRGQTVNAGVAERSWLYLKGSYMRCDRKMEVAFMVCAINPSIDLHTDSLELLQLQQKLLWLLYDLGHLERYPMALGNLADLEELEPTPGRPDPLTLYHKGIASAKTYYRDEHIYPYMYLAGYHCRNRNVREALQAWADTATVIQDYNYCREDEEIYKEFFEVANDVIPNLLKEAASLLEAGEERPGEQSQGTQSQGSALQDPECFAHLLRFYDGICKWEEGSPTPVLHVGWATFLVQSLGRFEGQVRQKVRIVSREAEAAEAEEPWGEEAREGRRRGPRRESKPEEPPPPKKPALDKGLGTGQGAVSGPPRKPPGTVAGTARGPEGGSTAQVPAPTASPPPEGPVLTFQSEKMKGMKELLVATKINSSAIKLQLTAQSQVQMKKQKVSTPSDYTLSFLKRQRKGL

| SMILES | pIC50 [1] | GI50 [2] [nM] |
| --- | --- | --- |
| CCN(C(=O)c1cc(F)ccc1Oc1nncnc1N1CC2(CCN(Cc3ccc4oc(C(=O)NC)cc4c3)CC2)C1)C(C)C [Compound 74] | 6.38 | 176 |
| CCN(C(=O)c1cc(F)ccc1Oc1nncnc1N1CC2(CCN(Cc3ccc4oc(C(=O)NC)c(C)c4c3)CC2)C1)C(C)C [Compound 75] | 6.02 | 883 |
| C[C@H]1CN(C)CCN1C(=O)c1cc(F)ccc1Oc1nncnc1N1CC2(CCN(CC3CCN(c4ccccn4)CC3)CC2)C1 [Compound 76] | 6.06 | 932 |
| C[C@H]1COCCN1C(=O)c1cc(F)ccc1Oc1nncnc1N1CC2(CCN(CC3CCN(c4ccccn4)CC3)CC2)C1 [Compound 77] | 7.13 | 60 |
| CCN(C(=O)c1cc(F)ccc1Oc1nncnc1N1CC2(CCN(CC3CCN(c4ncccn4)CC3)CC2)C1)C(C)C [Compound 78] | 7.54 | 20 |
| CCN(C(=O)c1cc(F)ccc1Oc1nncnc1N1CC2(CCN(CC3CCN(c4ccn(C)n4)CC3)CC2)C1)C(C)C [Compound 79] | 7.24 | 78 |
| CCN(C(=O)c1cc(F)ccc1Oc1nncnc1N1CC2(CCN(CC3CCN(c4nc(C#N)co4)CC3)CC2)C1)C(C)C [Compound 80] | 8.18 | 16 |
| CCN(C(=O)c1cc(F)ccc1Oc1nncnc1N1CC2(CCN(CC3CCN(c4ccc(=O)n(C)n4)CC3)CC2)C1)C(C)C [Compound 81] | 7.26 | 117 |
| CCN(C(=O)c1cc(F)ccc1Oc1nncnc1N1CC2(CCN(CC3CCN(c4ccn5nccc5n4)CC3)CC2)C1)C(C)C [Compound 82] | 8.59 | 7 |
| CCN(C(=O)c1cc(F)ccc1Oc1nncnc1N1CC2(CCN(CC3CCN(c4ccc(C)nn4)CC3)CC2)C1)C(C)C [Compound 84] | 9.05 | 2 |
| CCN(C(=O)c1cc(F)ccc1Oc1nncnc1N1CC2(CCN(CC3CCN(c4cc(C)cnn4)CC3)CC2)C1)C(C)C [Compound 85] | 8.38 | 6 |
| Cc1ccc(N2CCC(CN3CCC4(CC3)CN(c3ncnnc3Oc3ccc(F)cc3-c3ccnn3C(C)C)C4)CC2)nn1 [Compound 86] | 8.96 | 6 |
| CCN(C(=O)c1cc(F)ccc1Oc1nncnc1N1CC2(CCN(CC3CCN(c4ccc(N)nn4)CC3)CC2)C1)C(C)C [Compound 87] | 7.43 | 156 |
| CCN(C(=O)c1cc(F)ccc1Oc1nncnc1N1CC2(CCN(CC3CCN(c4ccc(OC)nn4)CC3)CC2)C1)C(C)C [Compound 88] | 8.96 | 4 |
| CCN(C(=O)c1cc(F)ccc1Oc1nncnc1N1CC2(CCN(CC3CCN(c4cc(OC)cnn4)CC3)CC2)C1)C(C)C [Compound 89] | 8.55 | 4 |
| CCN(C(=O)c1cc(F)ccc1Oc1nncnc1N1CC2(CCN(CC3CCN(c4cc(OC)c(OC)nn4)CC3)CC2)C1)C(C)C [Compound 90] | 8.68 | 2 |
| CC(C)n1nccc1-c1cc(F)ccc1Oc1nncnc1N1CC2(CCN(CC3CCN(c4ccc(C(F)(F)F)nn4)CC3)CC2)C1 [Compound 91] | 8.51 | 13 |
| COc1cc(N2CCC(CN3CCC4(CC3)CN(c3ncnnc3Oc3ccc(F)cc3-c3ccnn3C)C4)CC2)nnc1OC [Compound 92] | 7.96 | 22 |
| CCN(C(=O)c1cc(F)ccc1Oc1nncnc1N1CC2(CCN(CC3CCN(c4cc(OC)c(OC)nn4)CC3)C2)C1)C(C)C [Compound 93] | 9.22 | 2 |
| CCN(C(=O)c1cc(F)ccc1Oc1nncnc1N1CCC2(CN(CC3CCN(c4cc(OC)c(OC)nn4)CC3)C2)C1)C(C)C [Compound 94] | 9.10 | 2 |
| CCOc1cc(N2CCC(CN3CCC4(CC3)CN(c3ncnnc3Oc3ccc(F)cc3C(=O)N(CC)C(C)C)C4)CC2)nnc1OCC [Compound 95] | 8.49 | 9 |
| CCN(C(=O)c1cc(F)ccc1Oc1nncnc1N1CC2(CCN(CC3CCN(c4nnc(OC)cc4OC)CC3)CC2)C1)C(C)C [Compound 96] | 7.52 | 59 |
| CCN(C(=O)c1cc(F)ccc1Oc1nncnc1N1CC2(CCN(CC3CCN(c4cc(C)c(OC)nn4)CC3)CC2)C1)C(C)C [Compound 97] | 9.05 | 1 |

| SMILES | pIC50 [1] | GI50 [2] [nM] |
| --- | --- | --- |
| CCN(C(=O)c1cc(F)ccc1Oc1nncnc1N1CC2(CCN(CC3CCN(c4nnc(OC)cc4C)CC3)CC2)C1)C(C)C [Compound 98] | 8.15 | 12 |
| COc1cc(N2CCC(CN3CCC4(CC3)CN(c3ncnnc3Oc3ccc(F)cc3C(=O)N3CCCC3)C4)CC2)nnc1OC [Compound 99] | 7.83 | 26 |
| COc1cc(N2CCC(CN3CCC4(CC3)CN(c3ncnnc3Oc3ccc(F)cc3C(=O)N3CCC[C@H]3C)C4)CC2)nnc1OC [Compound 100] | 8.72 | 9 |
| COc1cc(N2CCC(CN3CCC4(CC3)CN(c3ncnnc3Oc3ccc(F)cc3-c3ccnn3C(C)C)C4)CC2)nnc1OC [Compound 101] | 9.05 | 2 |
| COc1cc(N2CCC(CN3CCC4(CC3)CN(c3ncnnc3Oc3ccc(F)cc3)C4)CC2)nnc1OC [Compound 102] | 7.80 | 28 |
| COc1cc(N2CCC(CN3CCC4(CC3)CN(c3ncnnc3Oc3ccc(Cl)cc3)C4)CC2)nnc1OC [Compound 103] | 6.94 | 107 |
| COc1cc(N2CCC(CN3CCC4(CC3)CN(c3ncnnc3Oc3ccc(F)c5c3cnn5C(C)C)C4)CC2)nnc1OC [Compound 104] | < 6.00 | > 3300 |
| COc1cc(N2CCC(CN3CCC4(CC3)CN(c3ncnnc3Oc3ccc(F)cc3C(=O)OC(C)C)C4)CC2)nnc1OC [Compound 106] | 9.05 | 7 |
| CCN(C(=S)c1cc(F)ccc1Oc1nncnc1N1CC2(CCN(CC3CCN(c4cc(OC)c(OC)nn4)CC3)CC2)C1)C(C)C [Compound 107] | 8.48 | 9 |
| CCN(C(=O)c1cc(F)ccc1Oc1nncnc1N1CC2(CCN(CC3CCN(c4cc5c(nn4)OCCO5)CC3)CC2)C1)C(C)C [Compound 108] | 7.67 | 60 |
| CCN(C(=O)c1cc(F)ccc1Oc1nncnc1N1CC2(CCN(CC3CCN(c4cnnc(OC)c4)CC3)CC2)C1)C(C)C [Compound 109] | 8.13 | 6 |
| CCN(C(=O)c1cc(F)ccc1Oc1nncnc1N1CC2(CCN(CC3CCN(c4cc(OC)c(OC)cn4)CC3)CC2)C1)C(C)C [Compound 110] | 9.15 | 3 |
| CCN(C(=O)c1cc(F)ccc1Oc1nncnc1N1CC2(CCN(CC3CCN(c4cnc(OC)c(OC)c4)CC3)CC2)C1)C(C)C [Compound 111] | 8.28 | 8 |
| CCN(C(=O)c1cc(F)ccc1Oc1nncnc1N1CC2(CCN(CC3CCN(c4ccc(OC)cn4)CC3)CC2)C1)C(C)C [Compound 112] | 8.23 | 5 |
| CCN(C(=O)c1cc(F)ccc1Oc1nncnc1N1CC2(CCN(CC3CCN(c4cc(OC)ccn4)CC3)CC2)C1)C(C)C [Compound 113] | 8.72 | 4 |
| CCN(C(=O)c1cc(F)ccc1Oc1nncnc1N1CC2(CCN(CC3CCN(c4ccnc(OC)c4)CC3)CC2)C1)C(C)C [Compound 114] | 8.64 | 3 |
| CCN(C(=O)c1cc(F)ccc1Oc1nncnc1N1CC2(CCN(CC3CCN(c4ccc(C#N)nc4)CC3)CC2)C1)C(C)C [Compound 115] | 8.33 | 6 |
| CCN(C(=O)c1cc(F)ccc1Oc1nncnc1N1CC2(CCN(CC3CCN(c4ccc(C#N)cn4)CC3)CC2)C1)C1CC1 [Compound 116] | 7.27 | 70 |
| N#Cc1ccc(N2CCC(CN3CCC4(CC3)CN(c3ncnnc3Oc3ccc(F)cc3C3=CCOCC3)C4)CC2)nc1 [Compound 117] | 6.76 | 255 |
| Cc1nc(-c2cc(F)ccc2Oc2nncnc2N2CC3(CCN(CC4CCN(c5ccc(C#N)cn5)CC4)CC3)C2)n(C(C)C)n1 [Compound 118] | < 6.00 | > 3300 |
| CCN(C(=O)c1cc(F)ccc1Oc1nncnc1N1CC2(CCN(CC3CCN(c4cccc(C(N)=O)n4)CC3)CC2)C1)C(C)C [Compound 119] | 8.64 | 3 |
| CCN(C(=O)c1cc(F)ccc1Oc1nncnc1N1CC2(CCN(CC3CCN(c4ccnc(C(C)(C)O)c4)CC3)CC2)C1)C(C)C [Compound 120] | 7.82 | 36 |
